“And” between values parts separate entries of the source, which are not always exact repeats. Identical values can stand only once. Toxic doses and inconclusive results are not listed.
System: P388 leukemia ip, CD2F1 mice, survival T/C
Assay: NCI In Vivo Anticancer Drug Screen. Data for tumor model P388 Leukemia (intraperitoneal) in CD2F1 (CDF1) mice
Settings: endpoint: median survival time, higher = longer survival
In short: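 Mice carrying the transplanted tumor received test compound or vehicle. Survival was recorded in each group, and the value is the treated-group measurement divided by that of the vehicle-treated control group.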

Structure (SMILES): CO[C@H](C(=O)[C@@H](O)[C@@H](C)O)[C@@H]1Cc2cc3cc(OC4CC(OC5CC(O)C(O)C(C)O5)C(O)C(C)O4)c(C)c(O)c3c(O)c2C(=O)[C@H]1OC1CC(OC2CC(OC3CC(C)(O)C(O)C(C)O3)C(O)C(C)O2)C(O)C(C)O1 (some centres undefined)
- T/C (dose: 0.01 mg/kg/injection, schedule: Q01DX009 (ip), vehicle: saline): 100 % of control
- T/C (dose: 0.02 mg/kg/injection, schedule: Q01DX009 (sc), vehicle: saline): 100 % of control
- T/C (dose: 0.03 mg/kg/injection, schedule: Q01DX001 (ip), vehicle: saline): 100 % of control
- T/C (dose: 0.03 mg/kg/injection, schedule: Q01DX001 (sc), vehicle: saline): 104 % of control
- T/C (dose: 0.03 mg/kg/injection, schedule: Q01DX005 (iv), vehicle: saline): 100 % of control
- T/C (dose: 0.03 mg/kg/injection, schedule: Q01DX009 (ip), vehicle: saline): 100 % of control
- T/C (dose: 0.03 mg/kg/injection, schedule: Q01DX009 (sc), vehicle: saline): 104 % of control
- T/C (dose: 0.05 mg/kg/injection, schedule: Q01DX009 (ip), vehicle: water): 109 % of control and 110 % of control
- T/C (dose: 0.05 mg/kg/injection, schedule: Q01DX010 (ip), vehicle: water): 100 % of control
- T/C (dose: 0.06 mg/kg/injection, schedule: Q01DX001 (ip), vehicle: saline): 100 % of control
- T/C (dose: 0.06 mg/kg/injection, schedule: Q01DX001 (sc), vehicle: saline): 104 % of control
- T/C (dose: 0.06 mg/kg/injection, schedule: Q01DX005 (iv), vehicle: saline): 100 % of control
- T/C (dose: 0.06 mg/kg/injection, schedule: Q01DX009 (ip), vehicle: saline): 100 % of control
- T/C (dose: 0.06 mg/kg/injection, schedule: Q01DX009 (sc), vehicle: saline): 100 % of control
- T/C (dose: 0.1 mg/kg/injection, schedule: Q01DX009 (ip), vehicle: water): 115 % of control
- T/C (dose: 0.1 mg/kg/injection, schedule: Q01DX015 (ip), vehicle: water): 100 % of control and 109 % of control
- T/C (dose: 0.12 mg/kg/injection, schedule: Q01DX009 (ip), vehicle: clinical formulation): 103 % of control and 104 % of control and 108 % of control
- T/C (dose: 0.12 mg/kg/injection, schedule: Q01DX009 (ip), vehicle: water): 111 % of control and 114 % of control
- T/C (dose: 0.13 mg/kg/injection, schedule: Q01DX001 (ip), vehicle: saline): 100 % of control
- T/C (dose: 0.13 mg/kg/injection, schedule: Q01DX001 (sc), vehicle: saline): 100 % of control
- T/C (dose: 0.13 mg/kg/injection, schedule: Q01DX005 (ip), vehicle: water): 106 % of control and 107 % of control
- T/C (dose: 0.13 mg/kg/injection, schedule: Q01DX005 (iv), vehicle: saline): 100 % of control
- T/C (dose: 0.13 mg/kg/injection, schedule: Q01DX009 (ip), vehicle: water): 100 % of control
- T/C (dose: 0.13 mg/kg/injection, schedule: Q01DX009 (sc), vehicle: saline): 100 % of control
- T/C (dose: 0.16 mg/kg/injection, schedule: Q01DX009 (ip), vehicle: saline): 99 % of control
- T/C (dose: 0.2 mg/kg/injection, schedule: Q01DX009 (ip), vehicle: water): 118 % of control and 120 % of control
- T/C (dose: 0.2 mg/kg/injection, schedule: Q01DX015 (ip), vehicle: water): 109 % of control
- T/C (dose: 0.22 mg/kg/injection, schedule: Q01DX005 (ip), vehicle: clinical formulation): 108 % of control
- T/C (dose: 0.25 mg/kg/injection, schedule: Q01DX001 (ip), vehicle: saline): 100 % of control (2×) and 118 % of control
- T/C (dose: 0.25 mg/kg/injection, schedule: Q01DX001 (sc), vehicle: saline): 100 % of control
- T/C (dose: 0.25 mg/kg/injection, schedule: Q01DX005 (ip), vehicle: water): 108 % of control and 116 % of control
- T/C (dose: 0.25 mg/kg/injection, schedule: Q01DX005 (iv), vehicle: saline): 100 % of control
- T/C (dose: 0.25 mg/kg/injection, schedule: Q01DX009 (ip), vehicle: clinical formulation): 105 % of control and 109 % of control
- T/C (dose: 0.25 mg/kg/injection, schedule: Q01DX009 (oral), vehicle: saline): 109 % of control
- T/C (dose: 0.25 mg/kg/injection, schedule: Q01DX009 (sc), vehicle: saline): 100 % of control
- T/C (dose: 0.25 mg/kg/injection, schedule: Q03HX008 (ip), vehicle: saline): 108 % of control
- T/C (dose: 0.25 mg/kg/injection, schedule: Q04DX024 (ip), vehicle: saline): 116 % of control
- T/C (dose: 0.25 mg/kg/injection, schedule: Q08DX002 (ip), vehicle: saline): 118 % of control
- T/C (dose: 0.27 mg/kg/injection, schedule: Q01DX009 (ip), vehicle: saline): 99 % of control
- T/C (dose: 0.3 mg/kg/injection, schedule: Q01DX015 (ip), vehicle: water): 104 % of control and 118 % of control
- T/C (dose: 0.36 mg/kg/injection, schedule: Q01DX005 (ip), vehicle: clinical formulation): 105 % of control
- T/C (dose: 0.4 mg/kg/injection, schedule: Q01DX015 (ip), vehicle: water): 109 % of control
- T/C (dose: 0.45 mg/kg/injection, schedule: Q01DX009 (ip), vehicle: saline): 102 % of control
- T/C (dose: 0.5 mg/kg/injection, schedule: Q01DX001 (ip), vehicle: saline): 100 % of control (2×) and 113 % of control
- T/C (dose: 0.5 mg/kg/injection, schedule: Q01DX001 (oral), vehicle: saline): 100 % of control
- T/C (dose: 0.5 mg/kg/injection, schedule: Q01DX001 (sc), vehicle: saline): 100 % of control
- T/C (dose: 0.5 mg/kg/injection, schedule: Q01DX005 (ip), vehicle: water): 111 % of control and 114 % of control
- T/C (dose: 0.5 mg/kg/injection, schedule: Q01DX005 (iv), vehicle: saline): 100 % of control
- T/C (dose: 0.5 mg/kg/injection, schedule: Q01DX009 (ip), vehicle: clinical formulation): 116 % of control
- T/C (dose: 0.5 mg/kg/injection, schedule: Q01DX009 (ip), vehicle: saline): 113 % of control
- T/C (dose: 0.5 mg/kg/injection, schedule: Q01DX009 (ip), vehicle: water): 150 % of control
- T/C (dose: 0.5 mg/kg/injection, schedule: Q01DX009 (oral), vehicle: saline): 109 % of control
- T/C (dose: 0.5 mg/kg/injection, schedule: Q01DX009 (sc), vehicle: saline): 100 % of control
- T/C (dose: 0.5 mg/kg/injection, schedule: Q01DX015 (ip), vehicle: water): 118 % of control
- T/C (dose: 0.5 mg/kg/injection, schedule: Q03HX008 (ip), vehicle: saline): 108 % of control
- T/C (dose: 0.6 mg/kg/injection, schedule: Q01DX005 (ip), vehicle: clinical formulation): 113 % of control
- T/C (dose: 0.65 mg/kg/injection, schedule: Q01DX009 (ip), vehicle: water): 150 % of control
- T/C (dose: 0.75 mg/kg/injection, schedule: Q01DX009 (ip), vehicle: saline): 104 % of control
- T/C (dose: 1.0 mg/kg/injection, schedule: Q01DX001 (ip), vehicle: saline): 118 % of control
- T/C (dose: 1.0 mg/kg/injection, schedule: Q01DX001 (oral), vehicle: saline): 104 % of control
- T/C (dose: 1.0 mg/kg/injection, schedule: Q01DX001 (sc), vehicle: saline): 104 % of control
- T/C (dose: 1.0 mg/kg/injection, schedule: Q01DX005 (ip), vehicle: water): 118 % of control
- T/C (dose: 1.0 mg/kg/injection, schedule: Q01DX009 (ip), vehicle: clinical formulation): 104 % of control
- T/C (dose: 1.0 mg/kg/injection, schedule: Q01DX009 (oral), vehicle: saline): 109 % of control
- T/C (dose: 1.0 mg/kg/injection, schedule: Q03HX008 (ip), vehicle: saline): 116 % of control
- T/C (dose: 1.0 mg/kg/injection, schedule: Q08DX002 (ip), vehicle: saline): 109 % of control
- T/C (dose: 2.0 mg/kg/injection, schedule: Q01DX001 (oral), vehicle: saline): 100 % of control
- T/C (dose: 2.0 mg/kg/injection, schedule: Q01DX009 (ip), vehicle: clinical formulation): 116 % of control
- T/C (dose: 2.0 mg/kg/injection, schedule: Q01DX009 (oral), vehicle: saline): 109 % of control
- T/C (dose: 4.0 mg/kg/injection, schedule: Q01DX001 (oral), vehicle: saline): 100 % of control

Structure (SMILES): Nc1ccccc1OCCCn1cc(-c2ccc(Cl)c(Cl)c2)c(N)nc1=O
- T/C (dose: 7.5 mg/kg/injection, schedule: Q01DX005 (ip), vehicle: Klucel (hydroxypropylcellulose) (HPC)): 103 % of control
- T/C (dose: 15.0 mg/kg/injection, schedule: Q01DX005 (ip), vehicle: Klucel (hydroxypropylcellulose) (HPC)): 96 % of control
- T/C (dose: 30.0 mg/kg/injection, schedule: Q01DX005 (ip), vehicle: Klucel (hydroxypropylcellulose) (HPC)): 93 % of control

Structure (SMILES): CCC(=O)c1ccc(OC(C)=O)cc1
- T/C (dose: 50.0 mg/kg/injection, schedule: Q04DX003 (ip), vehicle: saline with Tween-80): 103 % of control
- T/C (dose: 100.0 mg/kg/injection, schedule: Q04DX003 (ip), vehicle: saline with Tween-80): 103 % of control
- T/C (dose: 200.0 mg/kg/injection, schedule: Q04DX003 (ip), vehicle: saline with Tween-80): 96 % of control

Structure (SMILES): N#C/C(=C/c1ccc(Cl)cc1)c1ccc(Cl)cc1
- T/C (dose: 50.0 mg/kg/injection, schedule: Q01DX009 (ip), vehicle: Klucel (hydroxypropylcellulose) (HPC)): 102 % of control
- T/C (dose: 100.0 mg/kg/injection, schedule: Q01DX009 (ip), vehicle: Klucel (hydroxypropylcellulose) (HPC)): 110 % of control
- T/C (dose: 200.0 mg/kg/injection, schedule: Q01DX009 (ip), vehicle: Klucel (hydroxypropylcellulose) (HPC)): 102 % of control

Source: PubChem BioAssay AID330 (DTP/NCI, 2004)
